Experimental data taken from article PMC7368294 (Proceedings of the National Academy of Sciences of the …, 2020).
Like-named read-outs stand apart in the source and are kept apart here.

Columns and labels:
Amα1/Amα8/Amβ1 nAChR = target: T1, Amα1/Amα8/Amβ1 nAChR (Apis mellifera, UniProt A0A7M7MMZ9+A0A8U0WQ70+A0A8U0WQC0); experiment: cell-based; parameters: species or system Xenopus laevis oocytes; conditions: Oocyte
T1 sequence (A0A7M7MMZ9 44-627): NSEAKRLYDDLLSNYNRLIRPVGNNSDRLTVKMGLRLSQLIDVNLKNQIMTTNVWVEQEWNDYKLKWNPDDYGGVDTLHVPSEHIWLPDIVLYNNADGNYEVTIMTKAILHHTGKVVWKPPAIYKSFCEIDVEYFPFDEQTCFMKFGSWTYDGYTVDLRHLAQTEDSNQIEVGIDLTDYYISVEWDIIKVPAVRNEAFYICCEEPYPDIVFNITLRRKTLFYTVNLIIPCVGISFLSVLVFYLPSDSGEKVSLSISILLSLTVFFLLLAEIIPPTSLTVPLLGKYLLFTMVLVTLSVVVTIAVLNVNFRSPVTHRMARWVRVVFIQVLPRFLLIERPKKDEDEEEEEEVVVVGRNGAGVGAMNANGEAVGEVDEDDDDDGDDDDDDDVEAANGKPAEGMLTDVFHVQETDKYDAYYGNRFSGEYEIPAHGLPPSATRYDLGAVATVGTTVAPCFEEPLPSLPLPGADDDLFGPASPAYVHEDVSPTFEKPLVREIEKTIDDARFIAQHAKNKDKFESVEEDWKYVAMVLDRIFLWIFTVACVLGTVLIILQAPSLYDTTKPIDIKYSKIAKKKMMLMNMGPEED
T1 sequence (A0A8U0WQ70 25-537): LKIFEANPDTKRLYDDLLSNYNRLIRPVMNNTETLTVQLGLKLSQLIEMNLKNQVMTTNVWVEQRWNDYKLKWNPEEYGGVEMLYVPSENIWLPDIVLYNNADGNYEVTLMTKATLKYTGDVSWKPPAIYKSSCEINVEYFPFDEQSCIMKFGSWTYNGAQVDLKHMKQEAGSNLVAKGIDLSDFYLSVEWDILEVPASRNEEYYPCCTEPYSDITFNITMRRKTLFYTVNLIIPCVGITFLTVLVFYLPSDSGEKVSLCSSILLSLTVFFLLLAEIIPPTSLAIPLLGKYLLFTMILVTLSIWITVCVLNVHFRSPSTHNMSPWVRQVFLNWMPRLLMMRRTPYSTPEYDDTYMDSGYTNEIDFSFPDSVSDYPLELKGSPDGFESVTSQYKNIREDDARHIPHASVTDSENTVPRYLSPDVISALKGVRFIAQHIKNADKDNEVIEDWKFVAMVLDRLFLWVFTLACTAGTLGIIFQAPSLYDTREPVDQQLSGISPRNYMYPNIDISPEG
T1 sequence (A0A8U0WQC0 25-520): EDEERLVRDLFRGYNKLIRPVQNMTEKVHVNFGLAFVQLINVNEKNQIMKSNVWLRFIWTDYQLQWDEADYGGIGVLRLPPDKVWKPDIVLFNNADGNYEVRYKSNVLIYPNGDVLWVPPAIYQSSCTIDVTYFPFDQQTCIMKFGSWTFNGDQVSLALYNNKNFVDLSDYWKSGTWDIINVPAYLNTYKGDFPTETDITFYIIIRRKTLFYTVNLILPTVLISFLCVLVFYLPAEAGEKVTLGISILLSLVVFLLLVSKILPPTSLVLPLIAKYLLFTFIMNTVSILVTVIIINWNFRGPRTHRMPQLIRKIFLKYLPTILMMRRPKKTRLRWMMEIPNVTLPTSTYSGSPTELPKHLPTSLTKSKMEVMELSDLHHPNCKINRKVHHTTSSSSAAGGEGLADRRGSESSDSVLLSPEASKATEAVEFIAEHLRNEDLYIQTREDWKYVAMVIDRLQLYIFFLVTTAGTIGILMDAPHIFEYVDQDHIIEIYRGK

Dα1/Dα2/Dβ1/Dβ2 nAChR = Dα1/Dα2/Dβ1/Dβ2 nAChR (Drosophila melanogaster, UniProt P04755+P09478+P17644+P25162); experiment: cell-based; parameters: species or system Xenopus laevis oocytes; conditions: Oocyte

CN/C(=N\[N+](=O)[O-])NCc1cnc(Cl)s1 [clothianidin]
Emax (Amα1/Amα8/Amβ1 nAChR; read-out: Clothianidin / Imax): 78.8 ± 2%
Emax (Dα1/Dα2/Dβ1/Dβ2 nAChR; read-out: Clothianidin / Imax / ND): 82.1 ± 1.7%

N#C/N=C1\SCCN1Cc1ccc(Cl)nc1 [thiacloprid]
Emax (Amα1/Amα8/Amβ1 nAChR; read-out: Thiacloprid / Imax): 5.8 ± 0.6%
Emax (Dα1/Dα2/Dβ1/Dβ2 nAChR; read-out: Thiacloprid / Imax): 45.4 ± 1.9%

O=[N+]([O-])NC1=NCCN1Cc1ccc(Cl)nc1 [imidacloprid]
Emax (Amα1/Amα8/Amβ1 nAChR; read-out: Imidacloprid / Imax): 7.5 ± 0.4%
Emax (Dα1/Dα2/Dβ1/Dβ2 nAChR; read-out: Imidacloprid / Imax): 59.2 ± 3%
